Laboratory results as given in patent US7625889B2, “Substituted bis aryl and heteroaryl compounds as selective 5HT2A antagonists” (Aventis Pharmaceuticals Inc., priority 2005, dated 2009).

Test system: newborn Sprague Dawley rats
Experiment: Obstructive Sleep Apnea Studies (L-tryptophan plus pargyline)
Format: in vivo, rat
Method: Intraperitoneal application of L-tryptophan (10 mg/kg) and pargyline (50 mg/kg) to anaesthetized newborn rats depresses the amplitude of the inspiratory discharges of the genioglossal muscle and induces obstructive apneas (OA). The following procedure describes how to determine the efficacy of the compounds of this invention when compared with the efficacy of theophylline.
Experiments are carried out on newborn Sprague Dawley rats. The animals are anaesthetized by intraperitoneal injection of low doses of sodium pentobarbitone (7-10 mg/kg), kept lying (dorsal cubitus) on a warming blanket and are spontaneously ventilating.
The electromyogram (EMG) activity of the genioglossal muscles and the diaphragm are recorded with fine insulated wires (bipolar recordings) inserted within the muscles, filtered (100-3,000 Hz), amplified (×5-10,000) and integrated (time constant 50 ms). The rib cage movements are recorded via a captor gently touching the lower ribs and/or the abdominal wall. The air flow changes resulting from the respiratory chest movements are recorded via a facial mask and a highly sensitive pressure recorder. […]
Effects of theophylline pre-treatment on the occurrence of obstructive apneas induced by 1-tryptophan and pargyline injection are measured as follows: Five newborn rats receive theophylline at 10 mg/kg and 5 other animals receive theophylline at 30 mg/kg. […]

SMILES: Cn1c(=O)c2[nH]cnc2n(C)c1=O [theophylline]
- induction of OAs after L-Trp+Prg injection (theophylline 10 or 30 mg/kg): not prevented
- depression of amplitude of GG inspiratory discharges by L-Trp+Prg injection (theophylline pre-treatment 10 mg/kg or 30 mg/kg): not prevented
